In patent US8410114B2, “2-pyrazinone derivatives for the treatment of disease or condition in which inhibition of neutrophil elastase activity is beneficial” (AstraZeneca AB, priority 2006, dated 2013):

Target: T1, Human Neutrophil Elastase (HNE) (Homo sapiens, UniProt P08246)
T1 construct: Human Neutrophil Elastase (HNE) purified from serum (Calbiochem art. 324681); purchased Calbiochem 324681; host or cells: purified from human material ('serum' in the source)
T1 sequence (P08246 30-247 limits assumed): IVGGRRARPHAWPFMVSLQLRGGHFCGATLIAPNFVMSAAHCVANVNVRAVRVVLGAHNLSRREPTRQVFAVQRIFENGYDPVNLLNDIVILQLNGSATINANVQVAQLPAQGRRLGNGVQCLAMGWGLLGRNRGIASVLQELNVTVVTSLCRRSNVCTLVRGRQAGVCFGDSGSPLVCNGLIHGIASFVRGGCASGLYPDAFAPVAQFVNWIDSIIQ
Assay: Human Neutrophil Elastase Quenched-FRET Assay
Assay type: biochemical
Settings: HNE 1.7 nM, substrate MeOSuc-AAPV-AMC 100 μM, 15 min preincubation, 30 min incubation at room temperature; read-out: Inhibition of Human Neutrophil Elastase IC50
Description: Human Neutrophil Elastase Quenched-FRET Assay
The assay uses Human Neutrophil Elastase (HNE) purified from serum (Calbiochem art. 324681; Ref. Baugh, R. J. et al., 1976, Biochemistry. 15, 836-841). HNE was stored in 50 mM sodium acetate (NaOAc), 200 mM sodium chloride (NaCl), pH 5.5 with added 30% glycerol at −20° C. The protease substrate used was Elastase Substrate V Fluorogenic, MeOSuc-AAPV-AMC (Calbiochem art. 324740; Ref. Castillo, M. J. et al., 1979, Anal. Biochem. 99, 53-64). The substrate was stored in dimethyl sulphoxide (DMSO) at −20° C. The assay additions were as follows: Test compounds and controls were added to black 96-well flat-bottom plates (Greiner 655076), 1 μL in 100% DMSO, followed by 30 μL HNE in assay buffer with 0.01% Triton (trade mark) X-100 detergent. The assay buffer constitution was: 100 mM Tris(hydroxymethyl)aminomethane (TRIS) (pH 7.5) and 500 mM NaCl. The enzyme and the compounds were incubated at room temperature for 15 minutes. Then 30 μl substrate in assay buffer was added. The assay was incubated for 30 minutes at room temperature. The concentrations of HNE enzyme and substrate during the incubation were 1.7 nM and 100 μM, respectively. The assay was then stopped by adding 60 μl stop solution (140 mM acetic acid, 200 mM sodium monochloroacetate, 60 mM sodium acetate, pH 4.3). Fluorescence was measured on a Wallac 1420 Victor 2 instrument at settings: Excitation 380 nm, Emission 460 nm. IC50 values were determined using Xlfit curve fitting using model 205.

IC50	Structure (SMILES)
1 nM	Cc1c(-c2ccnn2-c2ccc(C#N)nc2)nc(C(=O)NC2CC2)c(=O)n1-c1cccc(C(F)(F)F)c1 [Example 12, 6-[1-(6-Cyanopyridin-3-yl)-1H-pyrazol-5-yl]-N-cyclopropyl-5-methyl-3-oxo-4-[3-(trifluoromethyl)phenyl]-3,4-dihydropyrazine-2-carboxamide]
0.61 nM	Cc1c(-c2ccnn2-c2ccc(C#N)cc2)nc(C(=O)NCC(=O)O)c(=O)n1-c1cccc(C(F)(F)F)c1 [Example 16, 2-[[6-[2-(4-Cyanophenyl)pyrazol-3-yl]-5-methyl-3-oxo-4-[3-(trifluoromethyl)phenyl]-3,4-dihydro-pyrazine-2-carbonyl]amino]acetic acid]
0.33 nM	CNC(=O)c1nc(-c2ccnn2-c2ccc(C#N)cc2)c(C)n(-c2cccc(C(F)(F)F)c2)c1=O [Example 1, 6-[2-(4-Cyano-phenyl)-2H-pyrazol-3-yl]-5-methyl-3-oxo-4-(3-trifluoromethyl-phenyl)-3,4-dihydro-pyrazine-2-carboxylic acid methylamide]
0.32 nM	Cc1c(-c2ccnn2-c2ccc(C#N)cc2)nc(C(=O)NCc2ccc(S(C)(=O)=O)cn2)c(=O)n1-c1cccc(C(F)(F)F)c1 [Example 2, 6-[2-(4-Cyano-phenyl)-2H-pyrazol-3-yl]-5-methyl-3-oxo-4-(3-trifluoromethyl-phenyl)-3,4-dihydro-pyrazine-2-carboxylic acid (5-methanesulfonyl-pyridin-2-ylmethyl)-amide]
